The values that follow are results of earlier work, collected in patent publication US20110152382A1, “Composition of molecular elements for phosphorylase kinase inhibition” (priority 2009, published 2011).

Data set [1] deals with phosphorylase kinase. The following applies: previously reported by the inventor.
Data set [2] concerns phosphorylase kinase.

For `COc1cc(/C=C/C(=O)CC(=O)/C=C/c2ccc(O)c(OC)c2)ccc1O` [curcumin, diferuloylmethane], the “phosphorylase kinase activity in psoriatic skin” value in data set [1] is listed as “suppression of phosphorylase kinase activity”. Further, the anti-phosphorylase kinase activity result in data set [2] was “selective phosphorylase kinase inhibitor”.
As to curcumin glucuronate, in data set [2], the anti-phosphorylase kinase activity result is listed as “do not have anti-phosphorylase kinase activity”.
